Legend:
[1] = Inhibition of thrombin in human platelet rich plasma assessed as reduction in ADP-induced platelet aggregation after 5 mins
[2] = Inhibition of thrombin in human washed platelets assessed as reduction in thrombin-induced platelet aggregation after 5 mins
[3] = Inhibition of thrombin in human platelet rich plasma assessed as reduction in thrombin-induced platelet aggregation after 5 mins
[4] = Inhibition of thrombin in human platelet rich plasma assessed as reduction in arachidonic acid-induced platelet aggregation after 5 mins

`CC[C@H](CC[C@@H](C)[C@H]1CC[C@H]2[C@@H]3CC=C4C[C@@H](O)CC[C@]4(C)[C@H]3CC[C@]12C)C(C)C` [stigmast-5-en-3beta-ol] gave an IC50 [1] of 1500 µM, an IC50 [2] of 9.2 µM and an IC50 [3] of 10.5 µM. The IC50 [4] was 1500 µM.

Reference: BindingDB's records for doi:10.1021/acs.jnatprod.8b00574 (Institute of Medicinal and Aromatic Plants, 2018)
